Measurements from patent US8088815B2, “Spiroindolinone pyrrolidines” (Hoffman-La Roche Inc., priority 2009, dated 2012).

What follows are compounds tested against interaction between p53 and MDM2 proteins (Homo sapiens, UniProt Q00987) (assay: HTRF assay of inhibition of the p53-MDM2 interaction (GST-MDM2 / biotinylated p53 peptide)). Details: recombinant GST-tagged MDM2 and biotinylated p53 peptide, bsa:0.02%.
Type: binding
Description: The ability of the compounds to inhibit the interaction between p53 and MDM2 proteins was measured by an HTRF (homogeneous time-resolved fluorescence) assay in which recombinant GST-tagged MDM2 binds to a peptide that resembles the MDM2-interacting region of p53. Binding of GST-MDM2 protein and p53-peptide (biotinylated on its N-terminal end) is registered by the FRET (fluorescence resonance energy transfer) between Europium (Eu)-labeled anti-GST antibody and streptavidin-conjugated Allophycocyanin (APC).
Add 10 uL diluted compounds (1:5 dilution in reaction buffer) to each well, mix by shaking. Add 20 uL biotinylated p53 peptide (180 nM working solution) in reaction buffer to each well and mix on shaker. Incubate at 37° C. for 1 h. Add 20 uL streptavidin-APC and Eu-anti-GST antibody mixture (6 nM Eu-anti-GST and 60 nM streptavidin-APC working solution) in TBS buffer with 0.2% BSA, shake at room temperature for 30 minutes and read using a TRF-capable plate reader at
665 and 615 nm (Victor 5, Perkin ElmerWallac). If not specified, the reagents were purchased from Sigma Chemical Co.

Sequence of interaction between p53 and MDM2 proteins (Q00987 whole entry): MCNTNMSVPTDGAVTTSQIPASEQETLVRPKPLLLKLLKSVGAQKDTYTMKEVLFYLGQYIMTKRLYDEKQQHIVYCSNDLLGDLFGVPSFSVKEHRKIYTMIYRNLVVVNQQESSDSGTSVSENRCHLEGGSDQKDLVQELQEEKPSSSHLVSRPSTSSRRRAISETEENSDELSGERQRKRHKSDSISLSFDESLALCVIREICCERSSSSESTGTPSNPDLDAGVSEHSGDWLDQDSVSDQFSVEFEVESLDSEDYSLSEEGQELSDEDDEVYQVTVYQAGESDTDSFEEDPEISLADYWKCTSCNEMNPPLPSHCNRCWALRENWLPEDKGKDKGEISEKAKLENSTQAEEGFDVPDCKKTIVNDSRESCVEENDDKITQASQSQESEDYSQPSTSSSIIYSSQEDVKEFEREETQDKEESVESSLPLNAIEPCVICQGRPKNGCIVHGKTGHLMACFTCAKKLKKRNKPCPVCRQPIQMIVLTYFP

`COC(=O)c1ccc(NC(=O)[C@@H]2N[C@@H](CC(C)(C)C)[C@@]3(C(=O)Nc4cc(Cl)ccc43)[C@H]2c2cccc(Cl)c2F)cc1` (racemic) [Example 5, rac-4-{[(2′S,3′R,4′S,5′R)-6-chloro-4′-(3-chloro-2-fluoro-phenyl)-2′-(2,2-dimethyl-propyl)-2-oxo-1,2-dihydro-spiro[indole-3,3′-pyrrolidine]-5′-carbonyl]-amino}-benzoic acid methyl ester] and `CC(=O)c1ccc(NC(=O)[C@@H]2N[C@@H](CC(C)(C)C)[C@@]3(C(=O)Nc4cc(Cl)ccc43)[C@H]2c2cccc(Cl)c2F)cc1` (racemic) [Example 11, rac-(2′S,3′R,4′S,5′R)-6-chloro-4′-(3-chloro-2-fluoro-phenyl)-2′-(2,2-dimethyl-propyl)-2-oxo-1,2-dihydro-spiro[indole-3,3′-pyrrolidine]-5′-carboxylic acid (4-acetyl-phenyl)-amide] are within 1.5-fold of each other in IC50: 16 nM for the first, 13 nM for the second.

Compared with `CC(C)(C)C[C@@H]1N[C@@H](C(=O)Nc2ccc(C(=O)O)cc2)[C@H](c2cccc(Cl)c2F)[C@]12C(=O)Nc1cc(Cl)ccc12` (racemic) [Example 6, rac-4-{[(2′S,3′R,4′S,5′R)-6-chloro-4′-(3-chloro-2-fluoro-phenyl)-2′-(2,2-dimethyl-propyl)-2-oxo-1,2-dihydro-spiro[indole-3,3′-pyrrolidine]-5′-carbonyl]amino}-benzoic acid], `CC(C)(C)C[C@@H]1N[C@@H](C(=O)Nc2ccc(C(N)=O)cc2)[C@H](c2cccc(Cl)c2F)[C@]12C(=O)Nc1cc(Cl)ccc12` (racemic) [Example 8, rac-(2′S,3′R,4′S,5′R)-6-chloro-4′-(3-chloro-2-fluoro-phenyl)-2′-(2,2-dimethyl-propyl)-2-oxo-1,2-dihydro-spiro[indole-3,3′-pyrrolidine]-5′-carboxylic acid (4-carbamoyl-phenyl)-amide] is 1.6-fold lower in IC50: 11 nM for the first, 7 nM for the second. The second is the more potent here.

`CC(C)(C)C[C@@H]1N[C@@H](C(=O)Nc2ccc(C#N)cc2)[C@H](c2cccc(Cl)c2F)[C@]12C(=O)Nc1cc(Cl)ccc12` (racemic) [Example 7, rac-(2′S,3′R,4′S,5′R)-6-chloro-4′-(3-chloro-2-fluoro-phenyl)-2′-(2,2-dimethyl-propyl)-2-oxo-1,2-dihydro-spiro[indole-3,3′-pyrrolidine]-5′-carboxylic acid (4-cyano-phenyl)-amide] and `CC(C)(C)C[C@@H]1N[C@@H](C(=O)Nc2ccc(F)cc2)[C@H](c2cccc(Cl)c2F)[C@]12C(=O)Nc1cc(Cl)ccc12` (racemic) [Example 13, rac-(2′S,3′R,4′S,5′R)-6-chloro-4′-(3-chloro-2-fluoro-phenyl)-2′-(2,2-dimethyl-propyl)-2-oxo-1,2-dihydro-spiro[indole-3,3′-pyrrolidine]-5′-carboxylic acid (4-fluoro-phenyl)-amide] are within 1.5-fold of each other in IC50: 14 nM for the first, 19 nM for the second.

`CC(C)(C)C[C@@H]1N[C@@H](C(=O)Nc2ccc(S(C)(=O)=O)cc2)[C@H](c2cccc(Cl)c2F)[C@]12C(=O)Nc1cc(Cl)ccc12` (racemic) [Example 10, rac-(2′S,3′R,4′S,5′R)-6-chloro-4′-(3-chloro-2-fluoro-phenyl)-2′-(2,2-dimethyl-propyl)-2-oxo-1,2-dihydro-spiro[indole-3,3′-pyrrolidine]-5′-carboxylic acid (4-methanesulfonyl-phenyl)-amide] and `Cc1ccc(NC(=O)[C@@H]2N[C@@H](CC(C)(C)C)[C@@]3(C(=O)Nc4cc(Cl)ccc43)[C@H]2c2cccc(Cl)c2F)cc1` (racemic) [Example 36, rac-(2′S,3′R,4′S,5′R)-6-chloro-4′-(3-chloro-2-fluoro-phenyl)-2′-(2,2-dimethyl-propyl)-2-oxo-1,2-dihydro-spiro[indole-3,3′-pyrrolidine]-5′-carboxylic acid p-tolylamide] are within 1.5-fold of each other in IC50: 13 nM for the first, 18 nM for the second.

`COC(=O)c1ccc(NC(=O)[C@@H]2N[C@@H](CC(C)(C)C)[C@@]3(C(=O)Nc4cc(Cl)ccc43)[C@H]2c2cccc(Cl)c2F)s1` (racemic) [Example 14, rac-5-{[(2′S,3′R,4′S,5′R)-6-chloro-4′-(3-chloro-2-fluoro-phenyl)-2′-(2,2-dimethyl-propyl)-2-oxo-1,2-dihydro-spiro[indole-3,3′-pyrrolidine]-5′-carbonyl]amino}-thiophene-2-carboxylic acid methyl ester] and `COC(=O)c1cccc(NC(=O)[C@@H]2N[C@@H](CC(C)(C)C)[C@@]3(C(=O)Nc4cc(Cl)ccc43)[C@H]2c2cccc(Cl)c2F)c1` (racemic) [Example 31, rac-3-{[(2′S,3′R,4′S,5′R)-6-chloro-4′-(3-chloro-2-fluoro-phenyl)-2′-(2,2-dimethyl-propyl)-2-oxo-1,2-dihydro-spiro[indole-3,3′-pyrrolidine]-5′-carbonyl]amino}-benzoic acid methyl ester] are within 1.5-fold of each other in IC50: 22 nM for the first, 17 nM for the second.

`COC(=O)c1ccc(NC(=O)[C@@H]2N[C@@H](CC(C)(C)C)[C@@]3(C(=O)Nc4cc(Cl)ccc43)[C@H]2c2cccc(Cl)c2F)cc1OC` (racemic) [Example 15, rac-4-{[(2′S,3′R,4′S,5′R)-6-chloro-4′-(3-chloro-2-fluoro-phenyl)-2′-(2,2-dimethyl-propyl)-2-oxo-1,2-dihydro-spiro[indole-3,3′-pyrrolidine]-5′-carbonyl]amino}-2-methoxy-benzoic acid methyl ester] and `COc1cc(NC(=O)[C@@H]2N[C@@H](CC(C)(C)C)[C@@]3(C(=O)Nc4cc(Cl)ccc43)[C@H]2c2cccc(Cl)c2F)ccc1C(=O)O` (racemic) [Example 16, rac-4-{[(2′S,3′R,4′S,5′R)-6-chloro-4′-(3-chloro-2-fluoro-phenyl)-2′-(2,2-dimethyl-propyl)-2-oxo-1,2-dihydro-spiro[indole-3,3′-pyrrolidine]-5′-carbonyl]-amino}-2-methoxy-benzoic acid] are within 1.5-fold of each other in IC50: 13 nM for the first, 10 nM for the second.

`CC(C)(C)C[C@@H]1N[C@@H](C(=O)Nc2ccc(Cl)cc2)[C@H](c2cccc(Cl)c2F)[C@]12C(=O)Nc1cc(Cl)ccc12` (racemic) [Example 21, rac-(2′S,3′R,4′S,5′R)-6-chloro-4′-(3-chloro-2-fluoro-phenyl)-2′-(2,2-dimethyl-propyl)-2-oxo-1,2-dihydro-spiro[indole-3,3′-pyrrolidine]-5′-carboxylic acid (4-chloro-phenyl)-amide] and `CN(C)C(=O)c1ccc(NC(=O)[C@@H]2N[C@@H](CC(C)(C)C)[C@@]3(C(=O)Nc4cc(Cl)ccc43)[C@H]2c2cccc(Cl)c2F)cc1` (racemic) [Example 34, rac-(2′S,3′R,4′S,5′R)-6-chloro-4′-(3-chloro-2-fluoro-phenyl)-2′-(2,2-dimethyl-propyl)-2-oxo-1,2-dihydro-spiro[indole-3,3′-pyrrolidine]-5′-carboxylic acid (4-dimethylcarbamoyl-phenyl)-amide] are within 1.5-fold of each other in IC50: 19 nM for the first, 18 nM for the second.

First: COc1cc(NC(=O)[C@@H]2N[C@@H](CC(C)(C)C)[C@@]3(C(=O)Nc4cc(Cl)ccc43)[C@H]2c2cccc(Cl)c2F)ccc1C(N)=O (racemic) [Example 22, rac-(2′S,3′R,4′S,5′R)-6-chloro-4′-(3-chloro-2-fluoro-phenyl)-2′-(2,2-dimethyl-propyl)-2-oxo-1,2-dihydro-spiro[indole-3,3′-pyrrolidine]-5′-carboxylic acid (4-carbamoyl-3-methoxy-phenyl)-amide]
Second: COC(=O)c1ccc(NC(=O)[C@@H]2N[C@@H](CC(C)(C)C)[C@@]3(C(=O)Nc4cc(Cl)ccc43)[C@H]2c2cccc(Cl)c2F)cc1Cl (racemic) [Example 25, rac-2-chloro-4-{[(2′S,3′R,4′S,5′R)-6-chloro-4′-(3-chloro-2-fluoro-phenyl)-2′-(2,2-dimethyl-propyl)-2-oxo-1,2-dihydro-spiro[indole-3,3′-pyrrolidine]-5′-carbonyl]-amino}-benzoic acid methyl ester]
The IC50 of the first is 1.8-fold lower: 11 nM for the first, 20 nM for the second.

`Cn1ccc(NC(=O)[C@@H]2N[C@@H](CC(C)(C)C)[C@@]3(C(=O)Nc4cc(Cl)ccc43)[C@H]2c2cccc(Cl)c2F)cc1=O` (racemic) [Example 27, rac-(2′S,3′R,4′S,5′R)-6-chloro-4′-(3-chloro-2-fluoro-phenyl)-2′-(2,2-dimethyl-propyl)-2-oxo-1,2-dihydro-spiro[indole-3,3′-pyrrolidine]-5′-carboxylic acid (1-methyl-2-oxo-1,2-dihydro-pyridin-4-yl)-amide] and `CC(C)(C)C[C@@H]1N[C@@H](C(=O)Nc2ccn(CCO)c(=O)c2)[C@H](c2cccc(Cl)c2F)[C@]12C(=O)Nc1cc(Cl)ccc12` (racemic) [Example 30] are within 1.5-fold of each other in IC50: 17 nM for the first, 14 nM for the second.

`CC(C)(C)C[C@@H]1N[C@@H](C(=O)Nc2cccc(C(=O)O)c2)[C@H](c2cccc(Cl)c2F)[C@]12C(=O)Nc1cc(Cl)ccc12` (racemic) [Example 32, rac-3-{[(2′S,3′R,4′S,5′R)-6-chloro-4′-(3-chloro-2-fluoro-phenyl)-2′-(2,2-dimethyl-propyl)-2-oxo-1,2-dihydro-spiro[indole-3,3′-pyrrolidine]-5′-carbonyl]-amino}-benzoic acid] and `CC(C)(C)C[C@@H]1N[C@@H](C(=O)Nc2cccc(C(N)=O)c2)[C@H](c2cccc(Cl)c2F)[C@]12C(=O)Nc1cc(Cl)ccc12` (racemic) [Example 33, rac-(2′S,3′R,4′S,5′R)-6-chloro-4′-(3-chloro-2-fluoro-phenyl)-2′-(2,2-dimethyl-propyl)-2-oxo-1,2-dihydro-spiro[indole-3,3′-pyrrolidine]-5′-carboxylic acid (3-carbamoyl-phenyl)-amide] are within 1.5-fold of each other in IC50: 17 nM for the first, 13 nM for the second.
